In US11945813B2, “5-substituted 4-amino-1H-benzo[c][1,2,6]thiadiazine 2,2-dioxides and formulations and uses thereof” (Firmenich Incorporated, priority 2018, dated 2024):

Target: T1, T1R2/T1R3 taste receptor (Homo sapiens, UniProt Q8TE23)
T1 sequence (Q8TE23 20-839): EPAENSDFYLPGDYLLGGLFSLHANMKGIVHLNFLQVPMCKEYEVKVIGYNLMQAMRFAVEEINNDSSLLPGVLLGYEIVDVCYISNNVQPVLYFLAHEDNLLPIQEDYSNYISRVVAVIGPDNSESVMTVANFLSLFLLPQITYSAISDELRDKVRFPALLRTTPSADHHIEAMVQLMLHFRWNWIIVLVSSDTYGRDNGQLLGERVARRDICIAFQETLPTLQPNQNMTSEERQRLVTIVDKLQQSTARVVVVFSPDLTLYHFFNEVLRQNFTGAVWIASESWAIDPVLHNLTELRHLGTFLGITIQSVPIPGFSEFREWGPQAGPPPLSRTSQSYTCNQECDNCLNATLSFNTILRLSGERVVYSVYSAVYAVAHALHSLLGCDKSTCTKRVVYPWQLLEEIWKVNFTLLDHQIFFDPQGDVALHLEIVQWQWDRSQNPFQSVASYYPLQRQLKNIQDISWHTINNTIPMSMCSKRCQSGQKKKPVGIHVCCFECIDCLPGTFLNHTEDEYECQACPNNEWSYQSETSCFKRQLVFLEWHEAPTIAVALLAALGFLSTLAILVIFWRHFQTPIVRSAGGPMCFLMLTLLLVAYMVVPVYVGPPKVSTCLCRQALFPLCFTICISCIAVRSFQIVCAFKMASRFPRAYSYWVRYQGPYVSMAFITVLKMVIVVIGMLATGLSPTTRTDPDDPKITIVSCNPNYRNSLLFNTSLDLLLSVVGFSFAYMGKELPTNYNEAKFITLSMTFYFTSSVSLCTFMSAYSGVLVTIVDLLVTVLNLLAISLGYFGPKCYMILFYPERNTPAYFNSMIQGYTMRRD
T1 sequence (Q7RTX0 21-852 partner): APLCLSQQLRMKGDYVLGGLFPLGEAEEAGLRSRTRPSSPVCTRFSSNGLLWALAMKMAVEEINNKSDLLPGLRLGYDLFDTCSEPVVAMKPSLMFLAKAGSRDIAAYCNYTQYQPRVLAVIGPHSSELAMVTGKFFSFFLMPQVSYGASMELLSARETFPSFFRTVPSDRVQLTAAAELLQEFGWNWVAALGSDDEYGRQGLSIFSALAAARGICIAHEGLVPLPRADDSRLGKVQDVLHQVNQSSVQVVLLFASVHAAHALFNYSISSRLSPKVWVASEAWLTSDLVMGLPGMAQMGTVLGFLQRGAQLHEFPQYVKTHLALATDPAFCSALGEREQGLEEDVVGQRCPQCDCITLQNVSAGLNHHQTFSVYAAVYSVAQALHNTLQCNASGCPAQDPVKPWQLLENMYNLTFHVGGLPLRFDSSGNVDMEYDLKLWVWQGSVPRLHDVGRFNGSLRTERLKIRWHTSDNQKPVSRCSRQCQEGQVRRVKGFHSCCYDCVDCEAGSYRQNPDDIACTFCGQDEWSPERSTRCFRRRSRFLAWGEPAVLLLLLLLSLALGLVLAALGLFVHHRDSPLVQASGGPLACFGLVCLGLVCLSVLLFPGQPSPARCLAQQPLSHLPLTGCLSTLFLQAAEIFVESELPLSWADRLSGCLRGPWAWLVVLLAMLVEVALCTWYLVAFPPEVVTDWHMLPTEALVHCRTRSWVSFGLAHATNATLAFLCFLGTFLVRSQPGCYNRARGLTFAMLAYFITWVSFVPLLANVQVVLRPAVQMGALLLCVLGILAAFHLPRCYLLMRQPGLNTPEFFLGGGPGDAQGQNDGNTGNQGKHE
Test: Receptor-based assay: sweetener EC50 alone and with test compound (enhancement ratio)
Format: cell-based
Conditions: for Fructose Enhancement EC50 Ratio: sweetener fructose; for Sucralose Enhancement EC50 Ratio: sweetener sucralose; for Sucrose Enhancement EC50 Ratio: sweetener sucrose
Experimental: Potencies (EC50 values) for the sweeteners sucrose, sucralose, and fructose were measured against the T1R2/T1R3 taste receptor. EC50 was determined using the sweetener alone and in the presence of 3 μM, 10 μM, or 50 μM of test compound. EC50 ratios were calculated by the ratio of potency with and without the test compound. An “A” value indicates an enhancement ratio of greater than 20. A “B” value indicates an enhancement ratio from 10 to 20. A “C” value indicates an enhancement ratio greater than 1 and less than 10.

| Compound | Fructose Enhancement EC50 Ratio (10 μM test compound) | Fructose Enhancement EC50 Ratio (50 μM test compound) | Sucralose Enhancement EC50 Ratio (10 μM test compound) | Sucralose Enhancement EC50 Ratio (50 μM test compound) | Sucrose Enhancement EC50 Ratio (3 μM test compound) | Sucrose Enhancement EC50 Ratio (10 μM test compound) | Sucrose Enhancement EC50 Ratio (50 μM test compound) |
| --- | --- | --- | --- | --- | --- | --- | --- |
| CCCNc1nccc(NC(C)(C)COc2cccc3c2C(N)=NS(=O)(=O)N3)n1 [Compound 208] | C (A “C” value indicates an enhancement ratio greater than 1 and less than 10) | C (A “C” value indicates an enhancement ratio greater than 1 and less than 10) | A (An “A” value indicates an enhancement ratio of greater than 20) | A (An “A” value indicates an enhancement ratio of greater than 20) | C (A “C” value indicates an enhancement ratio greater than 1 and less than 10) | C (A “C” value indicates an enhancement ratio greater than 1 and less than 10) | C (A “C” value indicates an enhancement ratio greater than 1 and less than 10) |
| Cc1cc(C)nc(N2CCC[C@H](COc3cccc4c3C(N)=NS(=O)(=O)N4)C2)n1 [Compound 300, (S)-4-amino-5-((1-(4,6-dimethylpyrimidin-2-yl)piperidin-3-yl)methoxy)-1H-benzo[c][1,2,6]thiadiazine 2,2-dioxide] |  |  | A (An “A” value indicates an enhancement ratio of greater than 20) | A (An “A” value indicates an enhancement ratio of greater than 20) | C (A “C” value indicates an enhancement ratio greater than 1 and less than 10) | C (A “C” value indicates an enhancement ratio greater than 1 and less than 10) | C (A “C” value indicates an enhancement ratio greater than 1 and less than 10) |
| NC1=NS(=O)(=O)Nc2cccc(OC[C@H]3CCCN(c4cccc(C(=O)O)n4)C3)c21 [Compound 301, (S)-6-(3-(((4-amino-2,2-dioxido-1H-benzo[c][1,2,6]thiadiazin-5-yl)oxy)methyl)piperidin-1-yl)picolinic acid] |  |  | A (An “A” value indicates an enhancement ratio of greater than 20) | A (An “A” value indicates an enhancement ratio of greater than 20) | C (A “C” value indicates an enhancement ratio greater than 1 and less than 10) | C (A “C” value indicates an enhancement ratio greater than 1 and less than 10) | C (A “C” value indicates an enhancement ratio greater than 1 and less than 10) |
| NC1=NS(=O)(=O)Nc2cccc(OC[C@H]3CCCN(c4ccc(C(=O)O)cn4)C3)c21 [Compound 302] | C (A “C” value indicates an enhancement ratio greater than 1 and less than 10) | C (A “C” value indicates an enhancement ratio greater than 1 and less than 10) | A (An “A” value indicates an enhancement ratio of greater than 20) | A (An “A” value indicates an enhancement ratio of greater than 20) | C (A “C” value indicates an enhancement ratio greater than 1 and less than 10) | C (A “C” value indicates an enhancement ratio greater than 1 and less than 10) | C (A “C” value indicates an enhancement ratio greater than 1 and less than 10) |
| NC1=NS(=O)(=O)Nc2cccc(OC[C@H]3CCCN(c4cc(C(=O)O)ccn4)C3)c21 [Compound 303] |  | C (A “C” value indicates an enhancement ratio greater than 1 and less than 10) | C (A “C” value indicates an enhancement ratio greater than 1 and less than 10) | A (An “A” value indicates an enhancement ratio of greater than 20) | C (A “C” value indicates an enhancement ratio greater than 1 and less than 10) | C (A “C” value indicates an enhancement ratio greater than 1 and less than 10) | C (A “C” value indicates an enhancement ratio greater than 1 and less than 10) |
| Cc1cnc(N2CCC[C@H](COc3cccc4c3C(N)=NS(=O)(=O)N4)C2)nc1 [Compound 304] | C (A “C” value indicates an enhancement ratio greater than 1 and less than 10) | C (A “C” value indicates an enhancement ratio greater than 1 and less than 10) | A (An “A” value indicates an enhancement ratio of greater than 20) | A (An “A” value indicates an enhancement ratio of greater than 20) | C (A “C” value indicates an enhancement ratio greater than 1 and less than 10) | C (A “C” value indicates an enhancement ratio greater than 1 and less than 10) | C (A “C” value indicates an enhancement ratio greater than 1 and less than 10) |
| NC1=NS(=O)(=O)Nc2cccc(OC[C@H]3CCCN(c4ncc(F)cn4)C3)c21 [Compound 305] | C (A “C” value indicates an enhancement ratio greater than 1 and less than 10) | C (A “C” value indicates an enhancement ratio greater than 1 and less than 10) | A (An “A” value indicates an enhancement ratio of greater than 20) | A (An “A” value indicates an enhancement ratio of greater than 20) | C (A “C” value indicates an enhancement ratio greater than 1 and less than 10) | C (A “C” value indicates an enhancement ratio greater than 1 and less than 10) | C (A “C” value indicates an enhancement ratio greater than 1 and less than 10) |
| COc1cc(OC)nc(N2CCC[C@H](COc3cccc4c3C(N)=NS(=O)(=O)N4)C2)n1 [Compound 306] | C (A “C” value indicates an enhancement ratio greater than 1 and less than 10) |  | B (A “B” value indicates an enhancement ratio from 10 to 20) | B (A “B” value indicates an enhancement ratio from 10 to 20) | C (A “C” value indicates an enhancement ratio greater than 1 and less than 10) | C (A “C” value indicates an enhancement ratio greater than 1 and less than 10) | C (A “C” value indicates an enhancement ratio greater than 1 and less than 10) |
| Cc1cc(C(=O)O)nc(N2CCC[C@H](COc3cccc4c3C(N)=NS(=O)(=O)N4)C2)n1 [Compound 307] | C (A “C” value indicates an enhancement ratio greater than 1 and less than 10) | C (A “C” value indicates an enhancement ratio greater than 1 and less than 10) | A (An “A” value indicates an enhancement ratio of greater than 20) | A (An “A” value indicates an enhancement ratio of greater than 20) | C (A “C” value indicates an enhancement ratio greater than 1 and less than 10) | C (A “C” value indicates an enhancement ratio greater than 1 and less than 10) | C (A “C” value indicates an enhancement ratio greater than 1 and less than 10) |
